Values quoted from earlier work in patent US20130101569A1, “HAIR GROWTH STIMULANT” (priority 2011, published 2013).

Columns and labels:
[1] = tested on: healthy, older adults with mild memory complaints; settings: taken for six months; 485 subjects aged 55 and older
[2] = not carbohydrates

Row | Molecule | heart rate [1] | memory and learning [1] | cravings for fat [2]
1 | CC/C=C\C/C=C\C/C=C\C/C=C\C/C=C\C/C=C\CCC(=O)O [algal DHA, 4Z,7Z,10Z,13Z,16Z,19Z)-docosa-4,7,10,13,16,19-hexaenoic acid] | decreased heart rate | improved memory and learning | 
2 | Chromium(III) picolinate [chromium picolinate] |  |  | reduce cravings for fat
